Laboratory results: patent US12606528B2, “Methods and materials for inhibiting NF-kB activity” (University of Pittsburgh - Of the Commonwealth System of …, priority 2019, dated 2026)
pIC50: −log10 of the molar value. Like-named read-outs stand apart in the source and are kept apart here.

Tests used:
NF-κB = NF-κB assay: THP1-NF-κB-LUC cells, LPS-stimulated secreted luciferase; format: cell-based; conditions: THP1-NF-κB-LUC cells, read-out: IC50 (NF-κB assay)
In short: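 THP1-NF-κB-LUC cells (25k/well) were pretreated with compounds for 2 h, then stimulated with LPS (10 ng/mL) for 18 h. Secreted luciferase was measured and normalized to vehicle, and IC50 was fitted from the concentration series.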

TNF release = assay: TNF assay: TNF release from LPS-stimulated human PBMCs (TNF ELISA); format: cell-based; conditions: PBMC, read-out: IC50 (TNF assay)
Protocol: 25k THP1-NF-κB-LUC cells were dispensed into 384 well plate (per well). Cells were treated with compounds with various concentrations for 2 hours before addition of LPS (10 ng/mL) for 18 hours. Secreted luciferase activity were measured using quant-luc reagents (1 bag of luc reagent dilute to 40 mL, use 10 μL per well). Data were normalized to vehicle control and graphed. Compound IC50 towards inhibiting NF-κB were determined through Prism. Similarly, 10k human PBMCs cells were cultured in 384 well plate (per well). Cells were treated with compounds with various concentrations for 2 hours before addition of LPS (10 ng/ml) for 18 hours, and supernatants were collected and assayed for TNF ELISA. Compound IC50 towards inhibiting TNF release were determined through Prism. • Activity: “+”>10 μM, “++”>1 μM and <10 μM, “+++”>0.1 μM and <1 μM, “++++”<0.1 μM.

[1] = LPS-stimulated human PBMCs, TNF ELISA
[2] = compounds 2 hours before LPS (10 ng/mL) for 18 hours, secreted luciferase
[3] = human PBMCs, compounds 2 hours before LPS (10 ng/ml) for 18 hours, supernatant TNF ELISA

Compound	pIC50 (NF-κB; LPS-stimulated)	pIC50 (TNF release; [1])	pIC50 (NF-κB; [2])	pIC50 (TNF release; [3])
Fc1ccc(-c2nc3ccc(-c4nnc[nH]4)cc3nc2C(F)(F)F)cc1 [BC19159]	< 5.00	< 5.00	–	–
O=c1c(S(=O)(=O)c2ccc(F)cc2)c[nH]c2ccc(Cl)cc12 [BC19160]	–	–	< 5.00	< 5.00
O=C1COc2cc(S(=O)(=O)Nc3ccccc3)c(Cl)cc2N1 [BC19161]	–	–	5.00 to 6.00	< 5.00
Cc1ccc(Cl)cc1NS(=O)(=O)c1cc2c(cc1Cl)NC(=O)CO2 [BC19162]	–	–	< 5.00	< 5.00
COc1ccc(NS(=O)(=O)c2cc3c(cc2Br)NC(=O)CO3)cc1Cl [BC19163]	–	–	< 5.00	< 5.00
O=C1COc2cc(S(=O)(=O)Nc3ccc(OC(F)(F)F)cc3)c(Cl)cc2N1 [BC19164]	–	–	> 7.00	< 5.00
Cc1ccc(NS(=O)(=O)c2cc3c(cc2Cl)NC(=O)CO3)cc1Cl [BC19165]	–	–	6.00 to 7.00	< 5.00
O=C1COc2cc(S(=O)(=O)Nc3ccc(F)cc3F)c(Br)cc2N1 [BC19166]	–	–	> 7.00	< 5.00
CCc1cccc(NS(=O)(=O)c2cc3c(cc2Br)NC(=O)CO3)c1 [BC19167]	–	–	6.00 to 7.00	< 5.00
O=C1COc2c(cc(Cl)cc2S(=O)(=O)Nc2ccccc2)N1 [BC19168]	–	–	> 7.00	< 5.00
O=C1COc2c(cc(Cl)cc2S(=O)(=O)Nc2ccc(Cl)cc2)N1 [BC19169]	–	–	> 7.00	< 5.00
Cc1ccc(Cl)cc1NS(=O)(=O)c1cc(Cl)cc2c1OCC(=O)N2 [BC19170]	–	–	5.00 to 6.00	< 5.00
COc1ccc(NS(=O)(=O)c2cc(Br)cc3c2OCC(=O)N3)cc1Cl [BC19171]	–	–	> 7.00	< 5.00
O=C1COc2c(cc(Cl)cc2S(=O)(=O)Nc2ccc(OC(F)(F)F)cc2)N1 [BC19172]	–	–	> 7.00	< 5.00
CCOc1ccc(NS(=O)(=O)c2cc(Br)cc3c2OCC(=O)N3)cc1 [BC19173]	–	–	> 7.00	< 5.00
CC(C)c1ccc(NS(=O)(=O)c2cc(Cl)cc3c2OCC(=O)N3)cc1 [BC19174]	–	–	> 7.00	< 5.00
COc1ccc(NS(=O)(=O)c2cc(Br)cc3c2OCC(=O)N3)cc1 [BC19175]	–	–	> 7.00	< 5.00
Cc1ccc(NS(=O)(=O)c2cc(Cl)cc3c2OCC(=O)N3)cc1Cl [BC19176]	–	–	> 7.00	< 5.00
O=C1COc2c(cc(Br)cc2S(=O)(=O)Nc2ccc(F)c(F)c2)N1 [BC19177]	–	–	> 7.00	< 5.00
O=C1COc2c(cc(Br)cc2S(=O)(=O)Nc2ccc(F)cc2F)N1 [BC19178]	–	–	> 7.00	5.00 to 6.00
CCc1ccc(NS(=O)(=O)c2cc(Br)cc3c2OCC(=O)N3)cc1 [BC19179]	–	–	> 7.00	< 5.00
CCc1cccc(NS(=O)(=O)c2cc(Br)cc3c2OCC(=O)N3)c1 [BC19180]	–	–	> 7.00	< 5.00
CN1CC(=O)Nc2ccc(S(=O)(=O)N3CCCC3)cc21 [BC19181]	< 5.00	< 5.00	–	–

Compound	pIC50 (NF-κB; LPS-stimulated)	pIC50 (TNF release; [1])	pIC50 (NF-κB; [2])	pIC50 (TNF release; [3])
CC(=O)N1c2cc(S(=O)(=O)N3CCCC3)ccc2NC(=O)C1C (stereo not drawn) [BC19182]	< 5.00	< 5.00	–	–
CNC(=O)N1CC(=O)Nc2ccc(S(=O)(=O)N3CCCC3)cc21 [BC19183]	< 5.00	< 5.00	–	–
CC(C)CC(=O)N1c2cc(S(=O)(=O)N3CCCC3)ccc2NC(=O)C1C (stereo not drawn) [BC19184]	< 5.00	< 5.00	–	–
CN1CCN(C(=O)c2ccc3nc(-c4ccc(F)cc4)c(-c4cccs4)nc3c2)CC1 [BC19185]	> 7.00	< 5.00	–	–
Fc1ccc(-c2nc3cc(-c4nnn[nH]4)ccc3nc2-c2cccs2)cc1 [BC19186]	5.00 to 6.00	< 5.00	–	–
NC(=O)c1ccc2nc(-c3ccc(F)cc3)c(-c3cccs3)nc2c1 [BC19187]	6.00 to 7.00	< 5.00	–	–
CNC(=O)c1ccc2nc(-c3ccc(F)cc3)c(-c3cccs3)nc2c1 [BC19188]	6.00 to 7.00	< 5.00	–	–
C#CCNC(=O)c1ccc2nc(-c3ccc(F)cc3)c(-c3cccs3)nc2c1 [BC19189]	6.00 to 7.00	< 5.00	–	–
Cc1nc(-c2ccc3nc(-c4ccc(F)cc4)c(-c4ccc(F)cc4)nc3c2)no1 [BC19190]	6.00 to 7.00	< 5.00	–	–
CN1CCN(C(=O)c2ccc3nc(-c4cccs4)cnc3c2)CC1 [BC19191]	< 5.00	< 5.00	–	–
N#Cc1ccc2nc(-c3ccc(F)cc3)c(-c3ccc(F)cc3)nc2c1 [BC19192]	6.00 to 7.00	< 5.00	–	–
Cc1noc(-c2ccc3nc(-c4ccc(F)cc4)c(-c4ccc(F)cc4)nc3c2)n1 [BC19193]	6.00 to 7.00	< 5.00	–	–
N=C(NO)c1ccc2nc(-c3ccc(F)cc3)c(-c3ccc(F)cc3)nc2c1 [BC19194]	> 7.00	< 5.00	–	–
CC(C)OC(=O)Nc1ccc2nc(-c3ccc(F)cc3)c(-c3ccc(F)cc3)nc2c1 [BC19195]	5.00 to 6.00	< 5.00	–	–
O=c1c(S(=O)(=O)c2ccc(F)c(F)c2)c[nH]c2c(Cl)ccc(F)c12 [BC19196]	–	–	6.00 to 7.00	< 5.00
Cc1ccc(F)c2c(=O)c(S(=O)(=O)c3ccc(F)c(F)c3)c[nH]c12 [BC19197]	–	–	6.00 to 7.00	< 5.00
Cc1ccc(C)c2c(=O)c(S(=O)(=O)c3ccc(F)c(F)c3)c[nH]c12 [BC19198]	–	–	5.00 to 6.00	< 5.00
COc1ccc(Cl)c2c(=O)c(S(=O)(=O)c3ccc(F)c(F)c3)c[nH]c12 [BC19199]	–	–	6.00 to 7.00	< 5.00
COc1ccc(C)c2c(=O)c(S(=O)(=O)c3ccc(F)c(F)c3)c[nH]c12 [BC19200]	–	–	5.00 to 6.00	< 5.00
O=c1c(S(=O)(=O)c2ccc(F)c(F)c2)c[nH]c2ccncc12 [BC19201]	–	–	< 5.00	< 5.00
COc1ccc2[nH]cc(S(=O)(=O)c3ccc(F)cc3)c(=O)c2n1 [BC19202]	–	–	< 5.00	< 5.00
O=S(=O)(c1ccccc1)c1cnn(-c2ccccc2)c1 [BC19204]	< 5.00	< 5.00	–	–
O=S(=O)(c1ccccc1)c1ccn(-c2ccccc2)n1 [BC19205]	5.00 to 6.00	< 5.00	–	–

Compound	pIC50 (NF-κB; LPS-stimulated)	pIC50 (TNF release; [1])	pIC50 (NF-κB; [2])	pIC50 (TNF release; [3])
CC1Oc2cc(S(=O)(=O)Nc3ccccc3)c(Cl)cc2NC1=O (stereo not drawn) [BC19206]	–	–	5.00 to 6.00	< 5.00
CC(C)NS(=O)(=O)c1cc2c(cc1Cl)NC(=O)C(C)O2 (stereo not drawn) [BC19207]	–	–	< 5.00	< 5.00
CC1Oc2cc(S(=O)(=O)N3CCCC3)c(Cl)cc2NC1=O (stereo not drawn) [BC19208]	–	–	< 5.00	< 5.00
CCNS(=O)(=O)c1cc2c(cc1Cl)NC(=O)C(C)O2 (stereo not drawn) [BC19209]	–	–	5.00 to 6.00	< 5.00
CCC1Oc2cc(S(=O)(=O)Nc3ccc(C(C)C)cc3)c(Cl)cc2NC1=O (stereo not drawn) [BC19210]	–	–	> 7.00	< 5.00
CCC1Oc2cc(S(=O)(=O)Nc3ccc(OC)cc3)c(Cl)cc2NC1=O (stereo not drawn) [BC19211]	–	–	6.00 to 7.00	< 5.00
CCC1Oc2cc(S(=O)(=O)Nc3ccc(C)c(F)c3)c(Cl)cc2NC1=O (stereo not drawn) [BC19212]	–	–	> 7.00	< 5.00
CCC1Oc2cc(S(=O)(=O)Nc3cccc(SC)c3)c(Cl)cc2NC1=O (stereo not drawn) [BC19213]	–	–	6.00 to 7.00	< 5.00
CCCNS(=O)(=O)c1cc2c(cc1Cl)NC(=O)C(CC)O2 (stereo not drawn) [BC19214]	–	–	< 5.00	< 5.00
CCC1Oc2cc(S(=O)(=O)Nc3cc(Cl)ccc3C)c(Cl)cc2NC1=O (stereo not drawn) [BC19215]	–	–	5.00 to 6.00	< 5.00
CCc1ccc(NS(=O)(=O)c2cc3c(cc2Br)NC(=O)C(C)O3)cc1 (stereo not drawn) [BC19216]	–	–	> 7.00	< 5.00
CC1Oc2cc(S(=O)(=O)N3CCOCC3)c(Br)cc2NC1=O (stereo not drawn) [BC19217]	–	–	< 5.00	< 5.00
CC(C)CNS(=O)(=O)c1cc2c(cc1Br)NC(=O)C(C)O2 (stereo not drawn) [BC19218]	–	–	< 5.00	< 5.00
CC1Oc2cc(S(=O)(=O)N3CCN(C)CC3)c(Br)cc2NC1=O (stereo not drawn) [BC19219]	–	–	< 5.00	< 5.00
CCC1Oc2cc(S(=O)(=O)Nc3cccc(F)c3)c(Br)cc2NC1=O (stereo not drawn) [BC19220]	–	–	6.00 to 7.00	< 5.00
CCC1Oc2cc(S(=O)(=O)Nc3cccc(Cl)c3)c(Br)cc2NC1=O (stereo not drawn) [BC19221]	–	–	6.00 to 7.00	< 5.00
CCCNS(=O)(=O)c1cc2c(cc1Br)NC(=O)C(CC)O2 (stereo not drawn) [BC19222]	–	–	< 5.00	< 5.00
CCC1Oc2cc(S(=O)(=O)NC3CCCCC3)c(Br)cc2NC1=O (stereo not drawn) [BC19223]	–	–	< 5.00	< 5.00
CCC1Oc2cc(S(=O)(=O)Nc3ccc(C)cc3)c(Br)cc2NC1=O (stereo not drawn) [BC19224]	–	–	6.00 to 7.00	< 5.00
Cc1ccc(NS(=O)(=O)c2cc(Br)cc3c2OC(C)C(=O)N3)cc1Cl (stereo not drawn) [BC19225]	–	–	6.00 to 7.00	< 5.00
CC1Oc2c(cc(Br)cc2S(=O)(=O)N2CCOCC2)NC1=O (stereo not drawn) [BC19226]	–	–	5.00 to 6.00	< 5.00
CC(C)CNS(=O)(=O)c1cc(Br)cc2c1OC(C)C(=O)N2 (stereo not drawn) [BC19227]	–	–	< 5.00	< 5.00
CC1Oc2c(cc(Br)cc2S(=O)(=O)N2CCN(C)CC2)NC1=O (stereo not drawn) [BC19228]	–	–	< 5.00	< 5.00
